pIC50: −log10 of the molar value. “And” between values parts separate entries of the source, which are not always exact repeats. Equal entries are not always repeated.
How the values were obtained:
Rattus norvegicus = test: Acute in vivo activity measured by total plasma cholesterol concentration levels (TC) at 30 mg/kg dose; type: functional
[1] = molecular target: T1, Sterol O-acyltransferase 1 (Rattus norvegicus) (UniProt O70536); test: Acute in vivo activity was measured by the total plasma cholesterol concentration levels(TC) at dose 3 mg/kg; type: functional, organism-based; design: dose 3 mg/kg
T1 sequence (whole entry): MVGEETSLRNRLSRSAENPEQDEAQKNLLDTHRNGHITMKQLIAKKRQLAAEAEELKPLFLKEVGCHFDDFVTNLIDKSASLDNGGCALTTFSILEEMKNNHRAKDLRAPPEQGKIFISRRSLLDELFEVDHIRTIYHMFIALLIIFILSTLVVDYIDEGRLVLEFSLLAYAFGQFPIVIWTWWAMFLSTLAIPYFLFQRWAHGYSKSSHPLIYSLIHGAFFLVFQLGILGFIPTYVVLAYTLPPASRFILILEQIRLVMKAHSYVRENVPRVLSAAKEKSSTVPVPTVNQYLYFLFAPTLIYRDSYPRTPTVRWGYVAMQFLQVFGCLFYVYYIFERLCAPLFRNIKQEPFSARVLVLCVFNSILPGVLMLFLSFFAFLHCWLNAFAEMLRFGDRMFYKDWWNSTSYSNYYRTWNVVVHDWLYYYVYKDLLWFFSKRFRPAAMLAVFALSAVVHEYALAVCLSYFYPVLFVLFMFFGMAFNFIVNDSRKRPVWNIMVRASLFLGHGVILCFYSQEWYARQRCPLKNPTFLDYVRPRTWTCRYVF

[2] = molecular target: T2, Sterol O-acyltransferase 1 (Rattus norvegicus, UniProt O70536); test: In vitro inhibitory activity against acyl coenzyme A:cholesterol acyltransferase 1 in microsomes of rat liver
T2 sequence (O70536 whole entry): T1 sequence (whole entry)

[3] = molecular target: T1, Sterol O-acyltransferase 1 (Rattus norvegicus); test: Chronic in vivo activity was measured by the concentration of high density lipoproteins (HDL) in cholesterol fed rats; type: functional, organism-based
[4] = molecular target: T1, Sterol O-acyltransferase 1 (Rattus norvegicus); test: Chronic in vivo activity was measured by the total cholesterol concentration levels in cholesterol fed rats; type: functional, organism-based

Delta HDL [3] | Delta TC [4] | Compound | Delta TC (Rattus norvegicus) | Delta TC [1] | pIC50 [2]
 |  | Cc1cc(C(C)(C)C)c(OC(=O)NS(=O)(=O)Oc2ccccc2)c(C(C)(C)C)c1 | -65% | -15% | 4.05
133% | -68% | CC(C)CCN(CCC(C)C)S(=O)(=O)NC(=O)Nc1c(C(C)C)cccc1C(C)C |  | -66% | 6.38
 |  | CC(C)c1cccc(C(C)C)c1OC(=O)NS(=O)(=O)Oc1c(C(C)(C)C)cccc1C(C)(C)C | -55% | -46% | 4.30
43% | -45% | CC(C)c1cccc(C(C)C)c1NC(=O)NS(=O)(=O)N(C)CCc1ccccc1 |  | -38% | 5.77
207% | -69% | CCCCCCN(CCCCCC)S(=O)(=O)NC(=O)Nc1c(C(C)C)cccc1C(C)C |  | -63% | 6.29
122% | -62% | CC(C)CN(CC(C)C)S(=O)(=O)NC(=O)Nc1c(C(C)C)cccc1C(C)C |  | -61% | 6.38
 | -55% and -52% | CCCCCCCCCCCCOS(=O)(=O)NC(=O)Nc1c(C(C)C)cccc1C(C)C |  | -34% and -53% | 
170% | -36% | CC(C)c1cccc(C(C)C)c1NC(=O)NS(=O)(=O)N(c1ccccc1)c1ccccc1 |  | -27% | 4.80
92% | -35% | CC(C)c1cccc(C(C)C)c1NC(=O)NS(=O)(=O)N(C1CCCCC1)C1CCCCC1 |  | -60% | 6.64
30% | -38% | CCCCCCCCCCCCCCCCCCOS(=O)(=O)NC(=O)Nc1c(C(C)C)cccc1C(C)C |  | -5% | 4.85
123% | -56% | CC(C)c1cccc(C(C)C)c1NC(=O)NS(=O)(=O)N(CC1CCCO1)CC1CCCO1 (stereo unspecified) |  | -45% | 5.77
 |  | CCCCCCCCCCCCCCCCOS(=O)(=O)NC(=O)Oc1c(C(C)C)cccc1C(C)C | -60% | -42% | 4.99
86% | -62% | CCC(C)N(C(C)CC)S(=O)(=O)NC(=O)Nc1c(C(C)C)cccc1C(C)C (stereo unspecified) |  | -65% | 7.00
 |  | Cc1cccc(C)c1OS(=O)(=O)NC(=O)Oc1c(C(C)C)cccc1C(C)C | -58% | -37% | < 4.30
 |  | CC(C)c1cccc(C(C)C)c1OS(=O)(=O)NC(=O)Oc1ccc(F)cc1 | -21% |  | < 4.30
 |  | CC(C)c1ccc(OC(=O)NS(=O)(=O)Oc2c(C(C)C)cccc2C(C)C)c(C(C)C)c1 | 6% |  | < 4.30
 |  | CCCCCCOS(=O)(=O)NC(=O)Oc1c(C(C)(C)C)cc(C)cc1C(C)(C)C | -56% | -14% | 4.02
19% | -51% | CCCCCCCCCCCCCCN(C)S(=O)(=O)NC(=O)Nc1c(C(C)C)cccc1C(C)C |  | -65% | 6.48
 |  | CC(C)c1cccc(C(C)C)c1OC(=O)NS(=O)(=O)Oc1c(C(C)C)cccc1C(C)C [listing 2 of 2 here] | -70% |  | 5.03

Delta HDL [3] | Delta TC [4] | Compound | Delta TC (Rattus norvegicus) | Delta TC [1] | pIC50 [2]
 |  | CC(C)c1cccc(C(C)C)c1OS(=O)(=O)NC(=O)Oc1c(F)cccc1F | -27% |  | 4.19
 |  | CC(C)c1cccc(C(C)C)c1OC(=O)NS(=O)(=O)Oc1ccc(F)cc1F | -11% |  | < 4.30
 |  | CC(C)c1cccc(C(C)C)c1OS(=O)(=O)NC(=O)OC1[C@@H](C(C)C)CCC[C@H]1C(C)C (stereo partly specified) | -70% | -29% | 5.44
 |  | CCc1cccc(CC)c1COC(=O)NS(=O)(=O)Oc1c(C(C)C)cccc1C(C)C | -2% |  | 4.70
 |  | CC(C)c1cccc(C(C)C)c1OS(=O)(=O)NC(=O)Oc1cccnc1 | -2% |  | < 4.30
 |  | CCCCCCCCCCCCN(CCCCCCCCCCCC)S(=O)(=O)NC(=O)Nc1c(C(C)C)cccc1C(C)C | -5% |  | 4.16
 |  | CC(C)c1cccc(C(C)C)c1OC(=O)NS(=O)(=O)Oc1c(F)cccc1F | 9% |  | 4.42
 |  | CC(C)c1cccc(C(C)C)c1OS(=O)(=O)NC(=O)O[C@@H]1C[C@H](C)CCC1C(C)C (stereo partly specified) | -40% |  | 4.68
 |  | CC(C)c1cc(Cl)cc(C(C)C)c1OC(=O)NS(=O)(=O)Oc1c(C(C)C)cccc1C(C)C | 2% |  | 4.38
 |  | CCCCCCOS(=O)(=O)NC(=O)Oc1c(C(C)C)cccc1C(C)C | -52% | -18% | 4.40
 |  | CC(C)c1ccccc1OC(=O)NS(=O)(=O)Oc1c(C(C)C)cccc1C(C)C | -37% |  | < 4.30
 |  | CC(C)c1cccc(C(C)C)c1OC(=O)N(C)S(=O)(=O)Oc1c(C(C)C)cccc1C(C)C | -64% | -18% | 4.30
 |  | CCC(C)N(C(=O)NS(=O)(=O)Oc1c(C(C)C)cccc1C(C)C)C(C)CC (stereo unspecified) | -20% |  | 4.92
 |  | CCCCCCC(C)OC(=O)NS(=O)(=O)Oc1c(C(C)C)cccc1C(C)C (stereo unspecified) | -32% |  | 4.59
 |  | CCCCCCC(C)OS(=O)(=O)NC(=O)Nc1c(C(C)C)cccc1C(C)C (stereo unspecified) | -51% | 10% | 4.46
 |  | CC(C)c1cccc(C(C)C)c1OS(=O)(=O)NC(=O)OC1CCCCC1 | -38% |  | 4.42
 |  | CC(C)c1cccc(C(C)C)c1OS(=O)(=O)NC(=O)OC1C2CC3CC(C2)CC1C3 (stereo unspecified) | -36% |  | 4.64
 |  | CCCCCCCCCCCCOC(=O)NS(=O)(=O)Oc1c(C(C)C)cccc1C(C)C | -62% | 1% | 4.89

Compound | Delta HDL [3] | Delta TC [4] | Delta TC (Rattus norvegicus) | Delta TC [1] | pIC50 [2]
CC(C)c1cccc(C(C)C)c1OC(=O)NS(=O)(=O)N(c1ccccc1)c1ccccc1 | 320% | -37% |  | -46% | 4.24
CCCCN(CCCC)S(=O)(=O)NC(=O)Oc1c(C(C)C)cccc1C(C)C | 109% and 113% | -69% and -72% |  | -64% and -47% | 
COc1cc(C(C)(C)C)c(OC(=O)NS(=O)(=O)Nc2c(C(C)C)cccc2C(C)C)c(C(C)(C)C)c1 | 86% | -47% |  | -29% | 4.82
CCCCCCCCN(C)S(=O)(=O)NC(=O)Oc1c(C(C)C)cccc1C(C)C | 88% | -64% |  | -57% | 4.66
CCCCCN(CCCCC)S(=O)(=O)NC(=O)Oc1c(C(C)C)cccc1C(C)C | 166% | -73% |  | -66% | 5.89
CCCCCCN(CCCCCC)S(=O)(=O)NC(=O)Oc1c(C(C)C)cccc1C(C)C | 144% | -75% |  | -74% | 5.38
CC(C)c1cccc(C(C)C)c1OC(=O)NS(=O)(=O)Oc1c(C(C)C)cccc1C(C)C [listing 1 of 2 here] | 233% and 345% | -64% and -68% |  | -59% and -54% | 
CC(C)c1cccc(C(C)C)c1OC(=O)NS(=O)(=O)N(Cc1ccccc1)C(C)C | 114% | -69% |  | -59% | 4.92
COc1cc(C(C)(C)C)c(OC(=O)NS(=O)(=O)Oc2c(C(C)C)cccc2C(C)C)c(C(C)(C)C)c1 |  | -62% and -76% |  | -42% and -58% | 

Reference: ChEMBL document CHEMBL1129522, “Inhibitors of acyl-CoA:cholesterol O-acyltransferase. 17. Structure-activity relationships of several series of compounds derived from N-chlorosulfonyl isocyanate” (J Med Chem, 1996)
